According to patent US5789188A, “Tetracycline-efflux pump inhibitor screening methods” (priority 1996, dated 1998):
Like-named read-outs stand apart in the source and are kept apart here.

How the values were obtained:
strain KB3ind = assay type: cell-based, E. coli; on Induction Assay response: key: ±: Possible positive; +: Weak positive; ++: Stronger positive; -: Negative
Experimental: (§1) To detect tetracyclines, a plate assay is developed that is similar to one described previously (11). Cells are grown in Luria Broth (adjusted with NaOH to pH 7.5) with 25 μg/ml of kanamycin to a cell density of 0.5 absorbance units (600 nm). A 25 ml sample of the culture is harvested by centrifugation and resuspended in 1 ml of broth. The cells are mixed with 25 ml of soft agar (1%, wt/vol) and poured onto 100 ml of LB (pH 7.5)+ kanamycin, within a 22 cm^2 NUNC plate (Corning). Samples are applied by spotting from 2 to 15 μl, or by applying a disc impregnated with a compound, and the plate is incubated for 3-4 hours at 37° C. The plates are overlaid with a solution containing 13.5 mg of 6-bromo-2-naphthyl-β-D-galactopyranoside side and 86.5 mg of fast blue RR (Sigma) dissolved in 2 ml of dimethylsulfoxide, to which 25 ml of soft agar is added. β-Galactosidase is detected by the presence of a purple spot.

[1] = tested on: tetracycline efflux pump (strain KB4 or KB5); experiment: Inhibition Assay, plate assay (agar with 5 ng/ml of tetracycline); further: key: ±: Possible positive; +: Weak positive; ++: Stronger positive; -: Negative; assay type: cell-based, E. coli; conditions: disc on assay plate
Experimental: as §1
Two assays are developed for detecting inhibitors of the tetA gene product (using strain KB5), or the tetK gene product (using strain KB4). In the Inhibition Assay, cells of strain KB4 or KB5 are treated as described in the tetracycline screen above, except that the agar medium contains 5 ng/ml of tetracycline. Alternatively a Liquid Assay is also developed. Cells are first grown in LB (pH 7.5). Then cells are shifted to medium containing 5 ng/ml of tetracycline, and tetracycline-containing samples are added to aliquots. Cells are then incubated and assayed as described for the Tetracycline Assay. […] However, the intracellular concentration is reduced in tetracycline resistant strains due to the action of the efflux pump, so more tetracycline would be required in the medium to accumulate sufficient tetracycline inside the cell to induce. The Inhibition Assay is designed to detect compounds that cause β-galactosidase induction in the presence of sub-inducing levels of tetracycline for a resistant strain.

Compound	response in the Tetracycline Assay (β-galactosidase induction) (strain KB3ind; strain KB3ind, plate assay (plate or liquid assay))	Induction Assay response (strain KB3ind; disc on assay plate)	Inhibition Assay response [1]	Induction Assay response (strain KB3ind)
CN(C)C1C(=O)C(C(N)=O)=C(O)C2(O)C(=O)C3=C(O)c4c(O)ccc(Cl)c4C(O)C3CC12 (stereo not shown) [6-dimethyl chlortetracycline]	capable of detecting			
NCC[C@H](O)C(=O)N[C@@H]1C[C@H](N)[C@@H](O[C@H]2O[C@H](CN)[C@@H](O)[C@H](O)[C@H]2O)[C@H](O)[C@H]1O[C@H]1O[C@H](CO)[C@@H](O)[C@H](N)[C@H]1O [Amikacin]		-	-	
CC1(C)S[C@@H]2[C@H](NC(=O)[C@H](N)c3ccccc3)C(=O)N2[C@H]1C(=O)O [Ampicillin]		+		
CC1(C)S[C@@H]2[C@H](NC(=O)[C@H](NC(=O)N3CCNC3=O)c3ccccc3)C(=O)N2[C@H]1C(=O)O [Azlocillin]			-	
C[C@H]1[C@H](NC(=O)/C(=N\OC(C)(C)C(=O)O)c2csc(N)n2)C(=O)N1S(=O)(=O)O [Aztreonam]		-	-	
CC1(C)S[C@@H]2[C@H](NC(=O)C(C(=O)O)c3ccccc3)C(=O)N2[C@H]1C(=O)O (stereo partly shown) [Carbenicillin]		+	+	
Cn1nnnc1SCC1=C(C(=O)O)N2C(=O)[C@@H](NC(=O)[C@H](O)c3ccccc3)[C@H]2SC1 [Cefamandole]		±	+	
CO/N=C(\C(=O)N[C@@H]1C(=O)N2C(C(=O)O)=C(COC(C)=O)CS[C@H]12)c1csc(N)n1 [Cefotaxime]		+		
CO[C@@]1(NC(=O)Cc2cccs2)C(=O)N2C(C(=O)O)=C(COC(N)=O)CS[C@@H]21 [Cefoxitin]			+	
NC(=O)c1cc[n+](CC2=C(C(=O)O)N3C(=O)[C@@H](NC(=O)[C@@H](c4ccccc4)S(=O)(=O)[O-])[C@H]3SC2)cc1 [Cefsulodin]			±	
CC(C)(O/N=C(\C(=O)N[C@@H]1C(=O)N2C(C(=O)[O-])=C(C[n+]3ccccc3)CS[C@H]12)c1csc(N)n1)C(=O)O [Ceftazidine]		++	++	
O=C(Cc1cccs1)N[C@@H]1C(=O)N2C(C(=O)[O-])=C(C[n+]3ccccc3)CS[C@H]12 [Cephaleridine]			+	
CC(=O)OCC1=C(C(=O)O)N2C(=O)[C@@H](NC(=O)Cc3cccs3)[C@H]2SC1 [Cephalethin]		+	+	
O=C(N[C@H](CO)[C@H](O)c1ccc([N+](=O)[O-])cc1)C(Cl)Cl [Chloremphenicol]		-	-	
CCn1nc(C(=O)O)c(=O)c2cc3c(cc21)OCO3 [Cinoxacin]		±	-	
Cc1onc(-c2ccccc2Cl)c1C(=O)N[C@@H]1C(=O)N2[C@@H]1SC(C)(C)[C@@H]2C(=O)O [Cloxacillin]			-	
CC[C@H]1OC(=O)[C@H](C)[C@@H](O[C@H]2C[C@@](C)(OC)[C@@H](O)[C@H](C)O2)[C@H](C)[C@@H](O[C@@H]2O[C@H](C)C[C@H](N(C)C)[C@H]2O)[C@](C)(O)C[C@@H](C)C(=O)[C@H](C)[C@@H](O)[C@]1(C)O [Erythromycin]		-	-	

Compound	response in the Tetracycline Assay (β-galactosidase induction) (strain KB3ind; strain KB3ind, plate assay (plate or liquid assay))	Induction Assay response (strain KB3ind; disc on assay plate)	Inhibition Assay response [1]	Induction Assay response (strain KB3ind)
CC[n+]1c(-c2ccccc2)c2cc(N)ccc2c2ccc(N)cc21 [Ethidium bromide]			-	
C[C@@H](O)[C@H]1C(=O)N2C(C(=O)O)=C(SCCN=CN)C[C@H]12 [Imipenem]			++	++
NC[C@H]1O[C@H](O[C@H]2[C@H](O)[C@@H](O[C@H]3O[C@H](CO)[C@@H](O)[C@H](N)[C@H]3O)[C@H](N)C[C@@H]2N)[C@H](O)[C@@H](O)[C@@H]1O [Kanamycin]			-	-
COc1cccc(OC)c1C(=O)N[C@@H]1C(=O)N2[C@@H]1SC(C)(C)[C@@H]2C(=O)O [Methicillin]		-	-	
CO[C@@]1(NC(=O)C(C(=O)O)c2ccc(O)cc2)C(=O)N2C(C(=O)O)=C(CSc3nnnn3C)CO[C@@H]21 (stereo partly shown) [Moxalactam]		-	+	
CCOc1ccc2ccccc2c1C(=O)N[C@@H]1C(=O)N2[C@@H]1SC(C)(C)[C@@H]2C(=O)O [Nafcillin]		-	-	
CCn1cc(C(=O)O)c(=O)c2ccc(C)nc21 [Nalidixic Acid]		-	-	
CCn1cc(C(=O)O)c(=O)c2cc(F)c(N3CCNCC3)cc21 [Norfloxacin]		-	-	
CO[C@@H]1[C@@H](OC(N)=O)[C@@H](O)[C@H](Oc2ccc3c(O)c(NC(=O)c4ccc(O)c(CC=C(C)C)c4)c(=O)oc3c2C)OC1(C)C [Novobiocin]		-	-	
C[C@@H]1[C@H](O)[C@@H](C)/C=C/C=C/CC/C=C/C=C/C=C/C=C/C(O[C@H]2O[C@H](C)[C@@H](O)[C@H](N)[C@@H]2O)CC2O[C@](O)(CC(O)C(O)CCC(O)CC(O)CC(O)CC(=O)O[C@H]1C)CC(O)C2C(=O)O (stereo partly shown) [Nystatin]		++	-	
Cc1onc(-c2ccccc2)c1C(=O)N[C@@H]1C(=O)N2[C@@H]1SC(C)(C)[C@@H]2C(=O)O [Oxacillin]		-	-	
CC1(C)S[C@@H]2[C@H](NC(=O)Cc3ccccc3)C(=O)N2[C@H]1C(=O)O [Penicillin G]		-	-	
CCN1CCN(C(=O)N[C@@H](C(=O)N[C@@H]2C(=O)N3[C@@H]2SC(C)(C)[C@@H]3C(=O)O)c2ccccc2)C(=O)C1=O [Piperacillin]		±	-	
CO[C@H]1/C=C/O[C@@]2(C)Oc3c(C)c(O)c4c(O)c(c(/C=N/N5CCN(C)CC5)c(O)c4c3C2=O)NC(=O)/C(C)=C\C=C\[C@H](C)[C@H](O)[C@@H](C)[C@@H](O)[C@@H](C)[C@H](OC(C)=O)[C@@H]1C [Rifampin]			-	-
[H]/N=C(/N)N[C@H]1[C@H](O)[C@@H](O)[C@H](O[C@@H]2O[C@@H](C)[C@](O)(C=O)[C@H]2O[C@@H]2O[C@@H](CO)[C@H](O)[C@@H](O)[C@@H]2NC)[C@@H](N/C(N)=N\[H])[C@@H]1O [Streptomycin]		-	-	
Nc1ccc(S(=O)(=O)Nc2ccc(Cl)nn2)cc1 [Sulfachloropyridazine]		-	-	
Neomycin		-		
